The source of these data is US20180338980A1, “AROMATIC SULFONAMIDE DERIVATIVES” (BAYER PHARMA AKTIENGESELLSCHAFT, priority 2015, published 2018).

This test addresses T1, P2X4 (Homo sapiens, UniProt Q99571).
T1 sequence (Q99571 1-388): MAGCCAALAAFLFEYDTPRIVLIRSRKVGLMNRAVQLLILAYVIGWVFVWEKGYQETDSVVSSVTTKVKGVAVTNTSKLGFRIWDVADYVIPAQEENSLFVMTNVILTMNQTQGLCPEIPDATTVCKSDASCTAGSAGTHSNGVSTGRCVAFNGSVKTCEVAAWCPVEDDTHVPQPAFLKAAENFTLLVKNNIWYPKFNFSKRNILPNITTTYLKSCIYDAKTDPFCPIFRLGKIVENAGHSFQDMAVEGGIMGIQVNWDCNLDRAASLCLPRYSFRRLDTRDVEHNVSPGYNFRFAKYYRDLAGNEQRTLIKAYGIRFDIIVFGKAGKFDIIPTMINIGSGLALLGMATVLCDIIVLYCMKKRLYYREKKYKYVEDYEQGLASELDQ
Put plainly: Assay B: human P2X4 receptor cell line, mitochondrial photina luminescence (agonist Bz-ATP at EC50). It is filed as cell-based. Also on record: host or cells: HEK 293 (recombinant, constitutively expressing; with mitochondrial photina in Assay B). The note with it: HEK human P2X4 cell line, photina luminescence, agonist Bz-ATP at EC50, average; for Emax: read-out: human P2X4 Assay B avg Efficacy. The method, then: The identification of agonists and antagonists of the P2X4 receptor from humans and […] also the quantification of the activity of the compounds of the invention was performed by use of recombinant cell lines. […] The test cell lines constitutively express the mouse or human P2X4 receptors. Stimulation of the receptors with an agonist leads to a conformational change of P2X4 and influx of extracellular calcium ions through the ion channel. The cytoplasmatic calcium transient is detected via the calcium sensitive dye Fluo8 for the mouse P2×4 cell line or in case of the human P2×4 cell line a stably expressed calcium-sensitive photoprotein, mitochondrial photina, which, after reconstitution with the cofactor coelenterazine, emits light in dependence of calcium binding [Bovolenta S, Foti M, Lohmer S, Corazza S., J Biomol Screen. […] The strength of Fluo8 fluorescence signal or photina luminescence signal corresponds to the level of receptor activation. An inhibitor would decrease the signal depending on its potency and concentration.
The resulting light signal is measured immediately in the luminometer.

Structures are written as SMILES.

What is called IC50 is the concentration that gives 50% inhibition. `CC(Oc1ccc(NC(=O)Cc2ccccc2Cl)cc1S(N)(=O)=O)c1ccccc1` (single isomer, unassigned) [Example 148B, 2-(2-Chlorophenyl)-N-[4-(1-phenylethoxy)-3-sulfamoylphenyl]acetamide]: the IC50 amounted to 519 nM and the “human P2X4 Assay B avg Efficacy” value was found to be 64%. As to `N#Cc1cc(Cl)cc(Oc2ccc(NC(=O)Cc3ccccc3Cl)cc2S(N)(=O)=O)c1` [Example 001, N-[4-(3-Chloro-5-cyanophenoxy)-3-sulfamoylphenyl]-2-(2-chlorophenyl)acetamide], the IC50 is 7720 nM and the Emax was determined as 61%. Taken in the same sequence, the figures for `NS(=O)(=O)c1cc(NC(=O)Cc2ccccc2Cl)ccc1Oc1ccnc(Cl)c1` [Example 003, 2-(2-Chlorophenyl)-N-{4-[(2-chloropyridin-4-yl)oxy]-3-sulfamoylphenyl}acetamide] were 6340 nM and 50%. Taken in the same sequence, the figures for `NS(=O)(=O)c1cc(NC(=O)Cc2ccccc2Cl)ccc1Oc1cncnc1` [Example 019, 2-(2-Chlorophenyl)-N-[4-(pyrimidin-5-yloxy)-3-sulfamoylphenyl]acetamide] were 1420 nM and 80%. Taken in the same sequence, the figures for `NS(=O)(=O)c1cc(NC(=O)Cc2ccccc2Cl)ccc1Oc1cccc(-c2nnn[nH]2)c1` [Example 021, 2-(2-Chlorophenyl)-N-{3-sulfamoyl-4-[3-(1H-tetrazol-5-yl)phenoxy]phenyl}acetamide] were 3860 nM and 60%.

In the case of `COc1ccc(Oc2ccc(NC(=O)Cc3ccccc3Cl)cc2S(N)(=O)=O)cc1` [Example 023, 2-(2-Chlorophenyl)-N-[4-(4-methoxyphenoxy)-3-sulfamoylphenyl]acetamide], the 50% inhibitory concentration (IC50) worked out at 166 nM and the Emax came to 73%. On to `N#Cc1ccc(Oc2ccc(NC(=O)Cc3ccccc3Cl)cc2S(N)(=O)=O)cc1C#N` [Example 025, 2-(2-Chlorophenyl)-N-[4-(3,4-dicyanophenoxy)-3-sulfamoylphenyl]acetamide], for which the IC50 was above 16000 nM and the Emax came out at 50%. Taken in the same sequence, the figures for `NS(=O)(=O)c1cc(NC(=O)Cc2ccccc2Cl)ccc1Oc1cccc(N2CCN(C(=O)Cc3ccccc3Cl)CC2)c1` [Example 027, 2-(2-Chlorophenyl)-N-[4-(3-{4-[(2-chlorophenyl)acetyl]piperazin-1-yl}phenoxy)-3-sulfamoylphenyl]acetamide] were 776 nM and 99%. Turning to `N#Cc1ccc(Oc2ccc(NC(=O)Cc3ccccc3Cl)cc2S(N)(=O)=O)cc1` [Example 030, 2-(2-Chlorophenyl)-N-[(4-cyanophenoxy)-3-sulfamoylphenyl]acetamide], the IC50 is 5080 nM and the Emax worked out at 99%. In the case of `N#Cc1cc(C#N)cc(Oc2ccc(NC(=O)Cc3ccccc3Cl)cc2S(N)(=O)=O)c1` [Example 033, 2-(2-Chlorophenyl)-N-[4-(3,5-dicyanophenoxy)-3-sulfamoylphenyl]acetamide], the IC50 was found to be 6750 nM and the Emax came to 75%. In the case of `COc1ccc(C#N)cc1Oc1ccc(NC(=O)Cc2ccccc2Cl)cc1S(N)(=O)=O` [Example 034, 2-(2-Chlorophenyl)-N-[4-(5-cyano-2-methoxyphenoxy)-3-sulfamoylphenyl]acetamide], the IC50 is 172 nM and the Emax was 57%. Regarding `NS(=O)(=O)c1cc(NC(=O)Cc2ccccc2Cl)ccc1Oc1cc(Cl)cnc1Cl` [Example 035, 2-(2-Chlorophenyl)-N-{4-[(2,5-dichloropyridin-3-yl)oxy]-3-sulfamoylphenyl}acetamide], the IC50 worked out at 3570 nM and the Emax was 60%.

`NS(=O)(=O)c1cc(NC(=O)Cc2ccccc2Cl)ccc1Oc1ncccc1Cl` [Example 038, 2-(2-chlorophenyl)-N-{4-[(3-chloropyridin-2-yl)oxy]-3-sulfamoylphenyl}acetamide]: the IC50 was found to be 777 nM and the Emax is 74%. Regarding `NS(=O)(=O)c1cc(NC(=O)Cc2ccccc2Cl)ccc1Oc1cccc(Cl)n1` [Example 040, 2-(2-Chlorophenyl)-N-{4-[(6-chloropyridin-2-yl)oxy]-3-sulfamoylphenyl}acetamide], the IC50 turned out to be 238 nM and the Emax was 64%. As for `CN1CCN=C1c1cccc(Oc2ccc(NC(=O)Cc3ccccc3Cl)cc2S(N)(=O)=O)c1` [Example 041, 2-(2-Chlorophenyl)-N-{4-[3-(1-methyl-4,5-dihydro-1H-imidazol-2-yl)phenoxy]-3-sulfamoylphenyl}acetamide], the IC50 was 3380 nM and the Emax came to 72%.

Consider `NS(=O)(=O)c1cc(NC(=O)Cc2ccccc2Cl)ccc1Oc1ccc(N2CCOCC2)cc1` [Example 044, 2-(2-Chlorophenyl)-N-{4-[4-(morpholin-4-yl)phenoxy]-3-sulfamoylphenyl}acetamide], for which the IC50 is 2630 nM and the Emax amounted to 69%. Taken in the same sequence, the figures for `Cc1ccc(C#N)cc1Oc1ccc(NC(=O)Cc2ccccc2Cl)cc1S(N)(=O)=O` [Example 045, 2-(2-Chlorophenyl)-N-[4-(5-cyano-2-methylphenoxy)-3-sulfamoylphenyl]acetamide] were 176 nM and 71%. Consider `Cc1c(C#N)cccc1Oc1ccc(NC(=O)Cc2ccccc2Cl)cc1S(N)(=O)=O` [Example 046, 2-(2-Chlorophenyl)-N-[4-(3-cyano-2-methylphenoxy)-3-sulfamoylphenyl]acetamide], for which the IC50 was 841 nM and the Emax amounted to 75%. Consider `N#Cc1ncc(Cl)cc1Oc1ccc(NC(=O)Cc2ccccc2Cl)cc1S(N)(=O)=O` [Example 048, N-{4-[(5-Chloro-2-cyanopyridin-3-yl)oxy]-3-sulfamoylphenyl}-2-(2-chlorophenyl)acetamide], for which the IC50 is 11600 nM and the Emax is 73%.

With `NS(=O)(=O)c1cc(NC(=O)Cc2ccccc2Cl)ccc1Oc1cccc(N2CCCCC2)c1` [Example 049, 2-(2-Chlorophenyl)-N-{4-[3-(piperidin-1-yl)phenoxy]-3-sulfamoylphenyl}acetamide], the IC50 was found to be 773 nM and the Emax was 92%. With `N#CC1(COc2ccc(NC(=O)Cc3ccccc3Cl)cc2S(N)(=O)=O)CCOCC1` [Example 055, 2-(2-Chlorophenyl)-N-{4-[(4-cyanotetrahydro-2H-pyran-4-yl)methoxy]-3-sulfamoylphenyl}acetamide], the IC50 worked out at 1160 nM and the Emax came out at 71%. Taken in the same sequence, the figures for `NS(=O)(=O)c1cc(NC(=O)Cc2ccccc2Cl)ccc1Oc1cnc(C(F)(F)F)nc1` [Example 056, 2-(2-Chlorophenyl)-N-(3-sulfamoyl-4-{[2-(trifluoromethyl)pyrimidin-5-yl]oxy}phenyl)acetamide] were above 50000 nM and 15%. Taken in the same sequence, the figures for `CC(C)c1ncc(Oc2ccc(NC(=O)Cc3ccccc3Cl)cc2S(N)(=O)=O)cn1` [Example 057, 2-(2-Chlorophenyl)-N-{4-[(2-isopropylpyrimidin-5-yl)oxy]-3-sulfamoylphenyl}acetamide] were 1590 nM and 65%. Taken in the same sequence, the figures for `Cc1nc(C2CC2)ncc1Oc1ccc(NC(=O)Cc2ccccc2Cl)cc1S(N)(=O)=O` [Example 058, 2-(2-Chlorophenyl)-N-{4-[(2-cyclopropyl-4-methylpyrimidin-5-yl)oxy]-3-sulfamoylphenyl}acetamide] were 3180 nM and 73%. On to `NS(=O)(=O)c1cc(NC(=O)Cc2ccccc2Cl)ccc1Oc1ccc(Br)cc1` [Example 060, N-[4-(4-Bromophenoxy)-3-sulfamoylphenyl]-2-(2-chlorophenyl)acetamide], for which the Emax turned out to be 34%. Turning to `NS(=O)(=O)c1cc(NC(=O)Cc2ccccc2Cl)ccc1Oc1cccc(C(=O)N2CCCCC2)c1` [Example 067, 2-(2-chlorophenyl)-N-{4-[3-(piperidin-1-ylcarbonyl)phenoxy]-3-sulfamoylphenyl}acetamide], the IC50 is 241 nM and the Emax worked out at 72%. Regarding `N#Cc1cc(F)cc(Oc2ccc(NC(=O)Cc3ccccc3Cl)cc2S(N)(=O)=O)c1` [Example 069, 2-(2-chlorophenyl)-N-[4-(3-cyano-5-fluorophenoxy)-3-sulfamoylphenyl]acetamide], the IC50 was determined as 2680 nM and the Emax is 71%.

Turning to `COc1ccccc1Oc1ccc(NC(=O)Cc2ccccc2)cc1S(N)(=O)=O` [Example 070, N-[4-(2-Methoxyphenoxy)-3-sulfamoylphenyl]-2-phenylacetamide], the IC50 turned out to be 1100 nM and the Emax came out at 70%. Taken in the same sequence, the figures for `COc1ccccc1Oc1ccc(NC(=O)Cc2ccc(C(F)(F)F)cc2)cc1S(N)(=O)=O` [Example 071, N-[4-(2-Methoxyphenoxy)-3-sulfamoylphenyl]-2-[4-(trifluoromethyl)phenyl]acetamide] were 2090 nM and 73%.
